Experimental data: ChEMBL document CHEMBL1129214, “Synthesis and structure-activity relationship of C-3 quaternary ammonium cephalosporins exhibiting anti-MRSA activities” (1997)
Converted amounts (≈) assume the structure as drawn.

Assays:
Assay type in all cases: functional
[1] = system: Staphylococcus aureus; assay: In vitro activity against MSSA (A20241) by standard broth dilution method; details: Staphylococcus aureus; read-out: MIC
[2] = system: Staphylococcus aureus; assay: In vitro activity against MSSA (A15090) by standard broth dilution method; details: Staphylococcus aureus; read-out: MIC
[3] = system: Staphylococcus aureus; assay: In vitro activity against MRSA (A27223; homogeneous strain) by standard broth dilution method; details: Staphylococcus aureus; read-out: MIC
[4] = system: Staphylococcus aureus; assay: In vitro activity against MRSA (A27621; homogeneous strain) by standard broth dilution method; details: Staphylococcus aureus; read-out: MIC
[5] = system: Staphylococcus aureus; assay: In vitro activity against MRSA (A27217; heterogeneous strain) by standard broth dilution method; details: Staphylococcus aureus; read-out: MIC
[6] = system: Staphylococcus aureus; assay: In vitro activity against MRSA (A27226; homogeneous strain) by standard broth dilution method; details: Staphylococcus aureus; read-out: MIC
[7] = In vivo inhibitory activity of compound against staphylococcus aureus; […]; details: read-out: PD50

SMILES	MIC [1] [µg/mL]	MIC [2] [µg/mL]	MIC [3] [µg/mL]	MIC [4] [µg/mL]	MIC [5] [µg/mL]	MIC [6] [µg/mL]	ED50 [7] [mg/kg]
O=C(CSc1cc(Cl)ccc1Cl)N[C@@H]1C(=O)N2C(C(=O)[O-])=C(C[n+]3cccc4c3CCCC4)CS[C@H]12	0.5 (≈ 0.886 µM)	0.5 (≈ 0.886 µM)	2 (≈ 3.54 µM)	2 (≈ 3.54 µM)	1 (≈ 1.77 µM)	1 (≈ 1.77 µM)	–
NCC(=O)NC1C[N+]2(CC3=C(C(=O)[O-])N4C(=O)[C@@H](NC(=O)CSc5cc(Cl)ccc5Cl)[C@H]4SC3)CCC1CC2 (stereo partly specified)	0.5 (≈ 0.814 µM)	0.5 (≈ 0.814 µM)	4 (≈ 6.51 µM)	4 (≈ 6.51 µM)	4 (≈ 6.51 µM)	2 (≈ 3.25 µM)	–
NC(=O)COc1cccc2c[n+](CC3=C(C(=O)[O-])N4C(=O)[C@@H](NC(=O)CSc5cc(Cl)ccc5Cl)[C@H]4SC3)ccc12	1 (≈ 1.58 µM)	1 (≈ 1.58 µM)	2 (≈ 3.16 µM)	2 (≈ 3.16 µM)	2 (≈ 3.16 µM)	2 (≈ 3.16 µM)	–
O=C(CSc1cc(Cl)ccc1Cl)N[C@@H]1C(=O)N2C(C(=O)[O-])=C(C[N+]34CCC(CC3)CC4)CS[C@H]12	1 (≈ 1.84 µM)	1 (≈ 1.84 µM)	2 (≈ 3.69 µM)	4 (≈ 7.37 µM)	2 (≈ 3.69 µM)	4 (≈ 7.37 µM)	–
NC(=O)c1ccc2n(cc[n+]2CC2=C(C(=O)[O-])N3C(=O)[C@@H](NC(=O)CSc4cc(Cl)ccc4Cl)[C@H]3SC2)c1	1 (≈ 1.69 µM)	0.5 (≈ 0.844 µM)	2 (≈ 3.38 µM)	2 (≈ 3.38 µM)	2 (≈ 3.38 µM)	2 (≈ 3.38 µM)	–
O=C(CSc1cc(Cl)ccc1Cl)N[C@@H]1C(=O)N2C(C(=O)[O-])=C(C[n+]3ccn4ccccc43)CS[C@H]12	0.5 (≈ 0.91 µM)	0.25 (≈ 0.455 µM)	4 (≈ 7.28 µM)	2 (≈ 3.64 µM)	2 (≈ 3.64 µM)	1 (≈ 1.82 µM)	–
O=C(CSc1cc(Cl)ccc1Cl)N[C@@H]1C(=O)N2C(C(=O)[O-])=C(C[n+]3cccc4cc[nH]c43)CS[C@H]12	1 (≈ 1.82 µM)	1 (≈ 1.82 µM)	2 (≈ 3.64 µM)	2 (≈ 3.64 µM)	1 (≈ 1.82 µM)	2 (≈ 3.64 µM)	–
O=C(C[N+]12CCN(CC1)CC2)N[C@@H]1C(=O)N2C(C(=O)[O-])=C(CSc3cc(Cl)ccc3Cl)CS[C@H]12	4 (≈ 7.36 µM)	4 (≈ 7.36 µM)	128 (≈ 236 µM)	128 (≈ 236 µM)	128 (≈ 236 µM)	128 (≈ 236 µM)	–
O=C(CSc1cc(Cl)ccc1Cl)N[C@@H]1C(=O)N2C(C(=O)[O-])=C(C[N+]34CCN(CC3)CC4)CS[C@H]12	0.5 (≈ 0.92 µM)	0.25 (≈ 0.46 µM)	4 (≈ 7.36 µM)	4 (≈ 7.36 µM)	2 (≈ 3.68 µM)	4 (≈ 7.36 µM)	0.8
O=C(CSc1cc(Cl)ccc1Cl)N[C@@H]1C(=O)N2C(C(=O)[O-])=C(C[n+]3cccc4[nH]cnc43)CS[C@H]12	0.125 (≈ 0.227 µM)	0.125 (≈ 0.227 µM)	2 (≈ 3.63 µM)	2 (≈ 3.63 µM)	1 (≈ 1.82 µM)	1 (≈ 1.82 µM)	–
